Species on record: Rattus norvegicus
Format: toxicity, organism-based, Sprague-Dawley
Conditions: in vivo, po, route oral GAVAGE, […]; for ABSOLUTE EOSINOPHIL / ABSOLUTE LYMPHOCYTE / ABSOLUTE MONOCYTE / ABSOLUTE SEGMENTED NEUTROPHIL / BASOPHIL / EOSINOPHIL / ERYTHROCYTE COUNT / HEMATOCRIT / HEMOGLOBIN / LYMPHOCYTE / MEAN CORPUSCULAR HEMOGLOBIN CONCENTRATION / MEAN CORPUSCULAR VOLUME / NEUTROPHIL / NUCLEATED RED BLOOD CELLS: tissue Blood; for ALANINE AMINOTRANSFERASE / ALBUMIN / ALKALINE PHOSPHATASE / ASPARTATE AMINOTRANSFERASE / BLOOD UREA NITROGEN / CARBON DIOXIDE / CHOLESTEROL / CREATINE PHOSPHOKINASE / CREATININE / LACTATE DEHYDROGENASE / POTASSIUM / TOTAL BILIRUBIN / TOTAL PROTEIN / PHOSPHORUS: tissue Plasma
[1] = 0 mg/kg, 6 h, vehicle control, dose level Control, time 0.25 day
[2] = 0 mg/kg, 24 h, vehicle control, dose level Control, time 1 day
[3] = 100 mg/kg, 6 h, dose level M1, time 0.25 day

Description: DrugMatrix - Regimen: Single

## CC(C)OC(=O)C(C)(C)Oc1ccc(C(=O)c2ccc(Cl)cc2)cc1 [FENOFIBRATE]
[1]
  ABSOLUTE EOSINOPHIL: 0 CELLS/uL
  ABSOLUTE LYMPHOCYTE: 8631 CELLS/uL
  ABSOLUTE MONOCYTE: 171.17 CELLS/uL
  ABSOLUTE SEGMENTED NEUTROPHIL: 1214.5 CELLS/uL
  BASOPHIL: 0%
  EOSINOPHIL: 0%
  ERYTHROCYTE COUNT: 5.42 x10E6/uL
  HEMATOCRIT: 34.7%
  HEMOGLOBIN: 13.67 G/DL
  LYMPHOCYTE: 86.17%
  MEAN CORPUSCULAR HEMOGLOBIN CONCENTRATION: 39.42 G/DL
  MEAN CORPUSCULAR VOLUME: 64.12 fL
  NEUTROPHIL: 12.17%
  NUCLEATED RED BLOOD CELLS: 0 /100WBC
  ALANINE AMINOTRANSFERASE: 61 u/L
  ALBUMIN: 4.67 G/DL
  ALKALINE PHOSPHATASE: 312.5 u/L
  ASPARTATE AMINOTRANSFERASE: 117.5 u/L
  BLOOD UREA NITROGEN: 8.67 mg/dL
  CARBON DIOXIDE: 26.33 mmol/L
  CHOLESTEROL: 72 mg/dL
  CREATINE PHOSPHOKINASE: 283.33 u/L
  CREATININE: 0.28 mg/dL
  LACTATE DEHYDROGENASE: 95.33 u/L
  POTASSIUM: 5.75 MEQ/L
  TOTAL BILIRUBIN: 0.3 mg/dL
  TOTAL PROTEIN: 5.43 G/DL
[2]
  ABSOLUTE EOSINOPHIL: 90.83 CELLS/uL
  ABSOLUTE LYMPHOCYTE: 14725.17 CELLS/uL
  ABSOLUTE MONOCYTE: 220 CELLS/uL
  ABSOLUTE SEGMENTED NEUTROPHIL: 1080.67 CELLS/uL
  BASOPHIL: 0%
  EOSINOPHIL: 0.67%
  ERYTHROCYTE COUNT: 5.3 x10E6/uL
  HEMATOCRIT: 33.4%
  HEMOGLOBIN: 13.4 G/DL
  LYMPHOCYTE: 91.17%
  MEAN CORPUSCULAR HEMOGLOBIN CONCENTRATION: 40.12 G/DL
  MEAN CORPUSCULAR VOLUME: 63.05 fL
  NEUTROPHIL: 6.67%
  NUCLEATED RED BLOOD CELLS: 0 /100WBC
  ALANINE AMINOTRANSFERASE: 69 u/L
  ALBUMIN: 4.33 G/DL
  ALKALINE PHOSPHATASE: 269 u/L
  ASPARTATE AMINOTRANSFERASE: 83.67 u/L
  BLOOD UREA NITROGEN: 14 mg/dL
  CARBON DIOXIDE: 29 mmol/L
  CHOLESTEROL: 66.67 mg/dL
  CREATINE PHOSPHOKINASE: 355 u/L
  CREATININE: 0.18 mg/dL
  LACTATE DEHYDROGENASE: 123.33 u/L
  PHOSPHORUS: 8.83 mg/dL
  POTASSIUM: 6.06 MEQ/L
  TOTAL BILIRUBIN: 0.2 mg/dL
  TOTAL PROTEIN: 5.72 G/DL
[3]
  ABSOLUTE EOSINOPHIL: 0 CELLS/uL
  ABSOLUTE LYMPHOCYTE: 15645.5 CELLS/uL
  ABSOLUTE MONOCYTE: 363.5 CELLS/uL
  ABSOLUTE SEGMENTED NEUTROPHIL: 1824.33 CELLS/uL
  BASOPHIL: 0%
  EOSINOPHIL: 0%
  ERYTHROCYTE COUNT: 5.47 x10E6/uL
  HEMATOCRIT: 34.7%
  HEMOGLOBIN: 13.57 G/DL
  LYMPHOCYTE: 88%
  MEAN CORPUSCULAR HEMOGLOBIN CONCENTRATION: 39.12 G/DL
  MEAN CORPUSCULAR VOLUME: 63.42 fL
  NUCLEATED RED BLOOD CELLS: 0 /100WBC
  ALANINE AMINOTRANSFERASE: 47.67 u/L
  ALBUMIN: 4.43 G/DL
  ALKALINE PHOSPHATASE: 355.83 u/L
  ASPARTATE AMINOTRANSFERASE: 100.33 u/L
  BLOOD UREA NITROGEN: 8.17 mg/dL
  CARBON DIOXIDE: 21.33 mmol/L
  CHOLESTEROL: 77.33 mg/dL
  CREATINE PHOSPHOKINASE: 740.17 u/L
  CREATININE: 0.18 mg/dL
  LACTATE DEHYDROGENASE: 327.83 u/L
  PHOSPHORUS: 12.3 mg/dL
  TOTAL BILIRUBIN: 0.22 mg/dL
  TOTAL PROTEIN: 5.92 G/DL
100 mg/kg, 24 h, dose level M1, time 1 day
  ABSOLUTE EOSINOPHIL: 24.83 CELLS/uL

Source: ChEMBL document CHEMBL3885881, “DrugMatrix”
